In ChEMBL document CHEMBL6114975, “Discovery of 2,4-quinazolinedione derivatives as LC3B recruiters in the facilitation of protein complex degradations” (Eur J Med Chem, 2025):

Legend:
[1] = biological target: Cyclin-dependent kinase 9 (Homo sapiens) (UniProt P50750); settings: dose 100.0 nM
Description: Inhibition of CDK9 (unknown origin) at 100 nM relative to control

[2] = biological target: Cyclin-dependent kinase 9 (Homo sapiens) (UniProt P50750); settings: dose 10.0 nM
Description: Inhibition of CDK9 (unknown origin) at 10 nM relative to control

WSUDLCL2 = test: Antiproliferative activity against human WSUDLCL2 cells

Chain of Cyclin-dependent kinase 9 (Homo sapiens) (P50750 whole entry): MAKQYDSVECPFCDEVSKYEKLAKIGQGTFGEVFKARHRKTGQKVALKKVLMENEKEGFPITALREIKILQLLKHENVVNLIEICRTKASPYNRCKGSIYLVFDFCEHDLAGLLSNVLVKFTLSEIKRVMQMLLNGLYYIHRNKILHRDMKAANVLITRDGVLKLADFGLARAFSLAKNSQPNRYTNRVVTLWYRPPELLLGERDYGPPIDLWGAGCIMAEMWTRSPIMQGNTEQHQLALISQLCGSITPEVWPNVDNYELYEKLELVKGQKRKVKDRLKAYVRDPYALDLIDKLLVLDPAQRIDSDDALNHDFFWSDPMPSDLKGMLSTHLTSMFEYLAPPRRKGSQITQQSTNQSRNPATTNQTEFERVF

inhibition [1] [%] | inhibition [2] [%] | Structure (SMILES) | IC50 (WSUDLCL2) [nM]
88 | 30 | CC(C)(C)c1cnc(CSc2cnc(NC(=O)C3CCN(CCCn4c(=O)n(Cc5ccncc5)c(=O)c5cccnc54)CC3)s2)o1 | 13
84 | 19 | CC(C)(C)c1cnc(CSc2cnc(NC(=O)C3CCN(CCCn4c(=O)n(Cc5ccccc5)c(=O)c5cccnc54)CC3)s2)o1 | 326
85 | 13 | CC(C)(C)c1cnc(CSc2cnc(NC(=O)C3CCN(CCCn4c(=O)n(Cc5ccncc5)c(=O)c5ccc(Cl)cc54)CC3)s2)o1 | 82
82 | -2 | CCn1c(=O)c2ccc(Cl)cc2n(CCCN2CCC(C(=O)Nc3ncc(SCc4ncc(C(C)(C)C)o4)s3)CC2)c1=O | 332

More lines, now with the values behind:

Structure (SMILES) | inhibition [1] [%] | inhibition [2] [%] | IC50 (WSUDLCL2) [nM]
CC(C)(C)c1cnc(CSc2cnc(NC(=O)C3CCN(CC(=O)NCCOCCOCCOCCNc4cccc5c4C(=O)N(C4CCC(=O)NC4=O)C5=O)CC3)s2)o1 (stereo not given) | 13 | – | 310
CCn1c(=O)c2cccnc2n(CCCN2CCC(C(=O)Nc3ncc(SCc4ncc(C(C)(C)C)o4)s3)CC2)c1=O | 83 | 27 | 39
CC(C)(C)c1cnc(CSc2cnc(NC(=O)C3CCNCC3)s2)o1 [BMS-387032] | 83 | 22 | 201
